The supplement of paper PMC10307832

Tests used:
Assay in all cases: relative viability (nuclei count vs DMSO), 5 days (fraction); higher = more cells survive
[1] = compound: C1CN(CCN1)C2=CC=C(C=C2)C3=CN4C(=C(C=N4)C5=CC=NC6=CC=CC=C56)N=C3 [DM3189] + Cc1cc(Nc2cc(N3CCN(C)CC3)nc(Sc3ccc(NC(=O)C4CC4)cc3)n2)n[nH]1 [Tozasertib] (partner 0.1 µM)
In short: (§1)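 Lung cancer cell lines were seeded in 1536-well plates and dosed by pin tool the next day, with either a single drug or a fixed anchor-drug dose combined with five library-drug doses (not always all listed) spaced in √10 steps. Five days later, one step fixed the cells and stained their nuclei (final 0.05% Triton X-100, 1% formaldehyde, 1 ug/ml Hoechst), and nuclei were counted on 4× images. Relative viability is the nuclei count in treated wells divided by the count in vehicle wells, and each value is the median of duplicate plates.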

[2] = compound: C1CN(CCN1)C2=CC=C(C=C2)C3=CN4C(=C(C=N4)C5=CC=NC6=CC=CC=C56)N=C3 [DM3189] + CC(C)C[C@H](NC(=O)[C@H](Cc1ccccc1)NC(=O)c1cnccn1)B(O)O [Bortezomib] (partner 0.002 µM)
In short: as §1

[3] = compound: C1CN(CCN1)C2=CC=C(C=C2)C3=CN4C(=C(C=N4)C5=CC=NC6=CC=CC=C56)N=C3 [DM3189] + CC(=O)c1c(C)c2cnc(Nc3ccc(N4CCNCC4)cn3)nc2n(C2CCCC2)c1=O [Palbociclib] (partner 0.5 µM)
In short: as §1

[4] = compound: C1CN(CCN1)C2=CC=C(C=C2)C3=CN4C(=C(C=N4)C5=CC=NC6=CC=CC=C56)N=C3 [DM3189] + COc1cccc2cc(-c3nc([C@H]4CC[C@H](C(=O)O)CC4)n4ncnc(N)c34)[nH]c12 [OSI-027] (partner 0.5 µM)
In short: as §1

[5] = compound: C1CN(CCN1)C2=CC=C(C=C2)C3=CN4C(=C(C=N4)C5=CC=NC6=CC=CC=C56)N=C3 [DM3189] + Nc1nc2[nH]cc(CCc3ccc(C(=O)N[C@@H](CCC(=O)O)C(=O)O)cc3)c2c(=O)[nH]1 [Pemetrexed] (partner 0.2 µM)
In short: as §1

Cell Line | relative viability ([1]; first compound 0.08 µM) | relative viability ([1]; first compound 0.253 µM) | relative viability ([1]; first compound 0.8 µM) | relative viability ([1]; first compound 2.53 µM) | relative viability ([2]; first compound 0.08 µM) | relative viability ([2]; first compound 0.253 µM) | relative viability ([2]; first compound 0.8 µM) | relative viability ([2]; first compound 2.53 µM) | relative viability ([3]; first compound 0.08 µM) | relative viability ([3]; first compound 0.253 µM) | relative viability ([3]; first compound 0.8 µM) | relative viability ([3]; first compound 2.53 µM) | relative viability ([4]; first compound 0.08 µM) | relative viability ([4]; first compound 0.253 µM) | relative viability ([4]; first compound 0.8 µM) | relative viability ([4]; first compound 2.53 µM) | relative viability ([5]; first compound 0.08 µM) | relative viability ([5]; first compound 0.253 µM) | relative viability ([5]; first compound 0.8 µM) | relative viability ([5]; first compound 2.53 µM)
NCI-H2023 | 0.442 | 0.304 | 0.259 | 0.266 | 1.12 | 0.961 | 0.823 | 0.514 | 0.38 | 0.396 | 0.4 | 0.336 | 0.428 | 0.388 | 0.295 | 0.398 | 0.235 | 0.231 | 0.236 | 0.178
HCC-78 | 0.263 | 0.464 | 0.411 | 0.465 | 0.486 | 0.571 | 0.403 | 0.571 | 0.479 | 0.395 | 0.423 | 0.586 | 0.383 | 0.35 | 0.371 | 0.358 | 0.918 | 0.918 | 0.848 | 0.927
NCI-H2170 | 0.84 | 0.651 | 0.525 | 0.71 |  |  |  |  | 0.484 | 0.363 | 0.368 | 0.347 | 0.863 | 0.76 | 0.768 | 0.686 | 0.282 | 0.276 | 0.373 | 0.248
NCI-H1793 | 0.33 | 0.321 | 0.294 | 0.357 |  |  |  |  | 0.414 | 0.432 | 0.448 | 0.451 | 0.279 | 0.247 | 0.245 | 0.319 | 1.03 | 1.18 | 1.1 | 1.47
HCC-366 | 0.133 | 0.0982 |  | 0.0984 | 1.12 | 0.99 | 0.931 | 1.06 | 0.408 | 0.286 | 0.244 | 0.341 | 0.888 | 0.856 |  | 0.808 | 0.139 | 0.166 | 0.116 | 0.149
NCI-H1651 | 0.704 | 0.722 | 0.628 | 0.649 | 1.04 | 0.984 | 0.908 | 0.971 | 0.543 | 0.554 | 0.582 | 0.574 | 0.783 | 0.626 | 0.864 | 0.727 | 0.729 | 0.556 | 0.553 | 0.541
LC-2-ad | 0.461 | 0.396 | 0.474 | 0.482 | 0.975 | 0.934 | 0.943 | 1.06 | 0.561 | 0.507 | 0.487 | 0.49 | 0.801 | 0.784 | 0.726 | 0.87 | 0.259 | 0.253 | 0.257 | 0.276
HCC-827 | 0.376 | 0.36 | 0.354 | 0.377 | 1.12 | 0.958 | 0.985 | 1.06 | 0.539 | 0.437 | 0.452 | 0.428 | 0.886 | 0.812 | 0.842 | 0.822 | 0.279 | 0.244 | 0.249 | 0.275
SW 1573 | 0.212 | 0.171 | 0.142 | 0.153 | 1.16 | 0.869 | 1 | 0.82 | 0.454 | 0.342 | 0.339 | 0.255 | 0.569 | 0.618 | 0.488 | 0.523 | 0.948 | 0.791 | 0.706 | 0.638
ABC-1 | 0.192 | 0.134 | 0.165 | 0.175 | 0.364 | 0.272 | 0.244 | 0.23 | 0.713 | 0.642 | 0.498 | 0.553 | 0.603 | 0.353 | 0.492 | 0.497 |  |  |  | 
NCI-H1703 |  |  |  |  | 0.365 | 0.292 | 0.326 | 0.298 |  |  |  |  |  |  |  |  |  |  |  | 
NCI-H727 | 0.648 | 0.568 | 0.654 | 0.578 | 1.07 | 0.854 |  | 0.716 | 0.581 | 0.581 | 0.579 | 0.608 | 0.471 | 0.606 | 0.486 | 0.583 |  |  |  | 
NCI-H2342 | 0.599 | 0.526 | 0.541 | 0.483 |  |  |  |  | 0.509 | 0.489 | 0.532 | 0.512 | 0.658 | 0.626 | 0.622 | 0.552 | 0.954 | 0.745 | 0.802 | 0.847
NCI-H596 | 0.826 | 0.869 | 0.937 | 0.92 | 1.34 | 0.969 | 1.03 | 1.28 |  |  |  |  | 0.799 | 0.746 | 0.615 | 0.643 | 0.49 | 0.442 | 0.512 | 0.477
SW 900 | 0.604 | 0.509 | 0.446 | 0.437 |  |  |  |  | 0.464 |  | 0.45 | 0.479 | 0.618 | 0.544 | 0.584 | 0.606 | 0.505 |  | 0.44 | 0.581
NCI-H522 | 0.602 | 0.582 | 0.552 | 0.494 |  |  |  |  | 1.27 | 0.808 | 1.1 | 0.998 | 0.796 | 0.695 | 0.685 | 0.828 | 0.992 | 0.898 | 0.767 | 0.873
NCI-H1792 |  |  |  |  | 0.838 | 0.926 | 0.852 | 0.656 | 0.569 | 0.675 | 0.716 | 0.609 | 0.585 | 0.703 | 0.661 | 0.839 | 0.986 | 0.98 | 0.645 | 0.616
IA-LM |  |  |  |  | 1.28 | 0.935 | 1.37 | 0.956 |  |  |  |  |  |  |  |  |  |  |  | 
NCI-H358 | 0.12 | 0.0936 | 0.102 | 0.11 |  |  |  |  | 0.278 | 0.13 | 0.126 | 0.127 | 1.02 | 0.722 | 0.782 | 0.488 | 0.172 | 0.155 | 0.181 | 0.168
NCI-H1563 |  |  |  |  | 0.945 | 0.762 | 0.887 | 1.07 |  |  |  |  | 0.876 | 0.673 | 0.749 | 0.785 | 0.715 | 0.787 | 0.755 | 0.752
